The term IC80 denotes the concentration needed for an effect of 80%. In general, MIC refers to the lowest concentration found to suppress growth.

≈ marks a conversion by molar mass, not a printed value.

For one experiment, the system named is Streptococcus pneumoniae. Kind of experiment: ATP bioluminescence test, inhibition of bacterial growth of Streptococcus pneumoniae (IC80). It counts as cell-based. To be noted: 80% inhibition of bacterial growth, ATP/luciferase readout, read-out: IC80 (μM) S. pneumoniae. On the procedure:
Measurement of the Inhibitory Activity (IC80) of the Compounds According to the Invention Towards Streptococcus pneumoniae
The test used is a bioluminescence test, the aim of which is to measure the inhibition of bacterial growth of Streptococcus pneumoniae by quantification of the amount of adenosine triphosphate (ATP). Specifically, ATP is a major and mandatory energy intermediate of very many reactions of cell metabolism which characterizes live media.
ATP quantification is performed at the end of the test by using an enzyme, luciferase, which, in the presence of ATP and of a specific substrate, luciferin, produces quantifiable light.
Thus, in the presence of luciferin and luciferase at […] concentrations, the value obtained in relative light units (RLU) will make it possible, by means of a calibration, to estimate the amount of ATP and thus deduce the number of live bacteria at the end of the incubation period.
Thus, the more the RLU value obtained at the end of the test tends towards zero, the more the product inhibits the total growth of bacteria.
The results (Table 3) are expressed in IC80.

Experiment [1] deals with Mycobacterium tuberculosis H37Rv. Kind of experiment: Alamar blue (MABA) test, MIC on Mycobacterium tuberculosis H37Rv. It counts as cell-based. To be noted: minimum inhibitory concentration, Alamar blue, strain H37Rv, read-out: MIC (μM) MTb H37Rv.

For `CON=C1C[C@@H](C)O[C@@H](O[C@@H]2[C@@H](C)[C@H](O[C@H]3C[C@H](C)N(CCc4ccncc4)C[C@H](C)O3)[C@@H](C)C(=O)OC([C@@H](C)CO[C@@H]3O[C@H](C)[C@@H](O)[C@@H](OC)[C@H]3OC)[C@H](C)[C@@H](OC(=O)CC(C)C)[C@@H](C)C(=O)[C@@](C)(OC(=O)NCc3ccccc3)C[C@@H]2C)[C@@H]1O` (some centres unmarked) [Compound 24], the IC80 with Streptococcus pneumoniae came out at 0.88 µM. The MIC in experiment [1] is 0.48 µM (≈ 0.582 µg/mL).
The corresponding values for `CON=C1C[C@@H](C)O[C@@H](O[C@@H]2[C@@H](C)[C@H](O[C@H]3C[C@@H](C)N(C)C[C@H](C)O3)[C@@H](C)C(=O)OC([C@@H](C)CO[C@@H]3O[C@H](C)[C@@H](O)[C@@H](OC)[C@H]3OC)[C@H](C)[C@@H](OC(=O)CC(C)C)[C@@H](C)C(=O)[C@@](C)(OC(=O)NCCNc3ccnc4cc(Cl)ccc34)C[C@@H]2C)[C@@H]1O` (some centres unmarked) [Compound 26] are 0.69 µM and 0.78 µM (≈ 0.965 µg/mL).
With `CON=C1C[C@@H](C)O[C@@H](O[C@@H]2[C@@H](C)[C@H](O[C@H]3C[C@H](C)N(Cc4ccccc4)C[C@H](C)O3)[C@@H](C)C(=O)OC([C@@H](C)CO[C@@H]3O[C@H](C)[C@@H](O)[C@@H](OC)[C@H]3OC)[C@H](C)[C@@H](OC(=O)CC(C)C)[C@@H](C)C(=O)[C@@](C)(OC(=O)NCCNC(=O)c3cnc(O)cn3)C[C@@H]2C)[C@@H]1O` (some centres unmarked) [Compound 33], in the experiment with Streptococcus pneumoniae, the IC80 came to 1.34 µM. In addition, the MIC in experiment [1] was found to be 0.35 µM (≈ 0.446 µg/mL).
With `CON=C1C[C@@H](C)O[C@@H](O[C@@H]2[C@@H](C)[C@H](O[C@H]3CC(C)N(C4CC4)C[C@H](C)O3)[C@@H](C)C(=O)OC([C@@H](C)CO[C@@H]3O[C@H](C)[C@@H](O)[C@@H](OC)[C@H]3OC)[C@H](C)[C@@H](OC(=O)CC(C)C)[C@@H](C)C(=O)[C@@](C)(OC(=O)NCc3ccccc3)C[C@@H]2C)[C@@H]1O` (some centres unmarked) [Compound 35], the IC80 in the experiment on Streptococcus pneumoniae worked out at 1.81 µM. The MIC in experiment [1] is 0.36 µM (≈ 0.413 µg/mL).

(Values after patent US20150210729A1, “MACROLIDE DERIVATIVES, PREPARATION THEREOF AND THERAPEUTIC USE THEREOF” (priority 2012, published 2015).)
